Assay results as given in PubChem BioAssay AID2060901 (Molecular Pharmacology Branch, DTP, NCI, 2025).

System: 422866-222-R5-J1-PDC complex spheroids viability
Assay: Anticancer human tumor 422866-222-R5-J1-PDC patient-derived pancreatic adenocarcinoma cell line growth inhibition [RAS]
Details: for IC50: curve of first compound; for viability, T/C: stronger effect = lower value; active means viability on the fitted dose curve at most 10% of control; inactive means the rest
Excerpt: RAS pathway inhibitors in Combinations in Complex Spheroids
A high-throughput screen of multi-cell type tumor spheroids was designed to identify active combinations of RAS pathway inhibitors and targeted small molecules. Complex spheroids include a stromal component modeled by human endothelial cells (HUVEC) and fibroblasts modeled by human mesenchymal stem cells (MSCs). The concentration ranges selected for each drug and investigational agent were based upon clinically achievable concentrations if the clinical Cmax of the agent was known.
Compounds. The drugs and investigational agents: abemaciclib (NSC768073), cobimetinib (NSC768068), divarasib (GDC6063, NSC841802), docetaxel (NSC628503), GDC-1971 (RLY-1971, NSC841576), gemcitabine (NSC613327), inavolisib (NSC800729), ipatasertib (NSC767898), KB-0742 (NSC834161), MRTX-1133 (NSC836407), osimertinib (NSC779217), RMC-4630 (NSC839698), RMC-6236 (NSC851965), RMC-6291 (NSC852671), Ro-3306 (NSC812927), sapanisertib (NSC764658), SN-38 (NSC673596), staurosporine (NSC755774), SY5609 (NSC837396), and tovorafenib (DAY101, NSC766906), were obtained from the National Cancer Institute (NCI) Developmental Therapeutics Program Chemical Repository. The FDA-approved anticancer drug set is available from the NCI Developmental Therapeutics Program. […] The stock solutions were prepared in dimethyl sulfoxide (DMSO, Sigma-Aldrich, St. Louis, MO, cat. D2650) at 800-fold the tested concentration and stored at -70 degrees C prior to their use. All drugs and investigational agents were tested over a range starting from a high concentration at or near the clinical Cmax and decreasing in half-log increments. If the clinical Cmax for an agent had not been determined, the highest concentration tested was 10 microM.
Cell Culture. All cells were maintained in an incubator at 37 degrees C and 5% CO2 with 95% humidity. The PDC lines were cultured according to standard operating procedures established by the NCI PDMR. All PDCs were thawed and cultured in Matrigel-coated flasks prepared with a working solution of 1X Ham's F-12 nutrient mix, without supplementation (Invitrogen, Waltham, MA, cat. 11765054), 100 U/mL penicillin-streptomycin (Invitrogen, cat. 15140122), and 2.5% Matrigel (Corning Inc., Corning, NY, cat. 354248) for the first three passages. The 362531-283-R-J2-PDC and 782815-120-R-J1-PDC lines were cultured in 6C/Colon 1B media, which includes advanced DMEM/F-12 (Thermo Fisher Scientific, cat. 12634028), 10 mM HEPES (Thermo Fisher Scientific, cat. 15630080), 1X GlutaMAX supplement (Thermo Fisher Scientific, cat. 35050061), 0.1 mg/mL primocin (InvivoGen, San Diego, CA, cat. ant-pm-2), 10% defined fetal bovine serum, heat inactivated (HyClone Laboratories Inc., Logan, UT, cat. SH30070.03HI), 50% L-WRN conditioned media (ATCC, cat. CRL-3276), 1.25 mM N-Acetyl-L-cysteine (Sigma-Aldrich, cat. A9165), 10 mM nicotinamide (Sigma-Aldrich, cat. N0636), 1X B-27 supplement (Thermo Fisher Scientific, cat. 17504044), 1X N-2 supplement (Thermo Fisher Scientific, cat. 17502048), 50 ng/mL human EGF (Thermo Fisher Scientific, cat. PHG0311), and 10 microM Y-27632 dihydrochloride (Tocris Bioscience, cat. 1254). The K12877-001-R-J1-PDC line was cultured in 6I media, which includes all 6C/Colon 1B media plus 10 ng/mL human FGF-10 (PeproTech, cat. 100-26), 1 ng/mL human FGF-2 (PeproTech, cat. 100-18B), 1 µM prostaglandin E2 (Tocris Bioscience, cat. 2296), […] hydrocortisone (Sigma-Aldrich, cat. H4001), and […] bovine insulin (Sigma-Aldrich, cat. I6634). The K86415-001-R-J1-PDC line was cultured in 6D media, which includes all 6C/Colon 1B media components minus the L-WRN conditioned media. The 485176-168-R4-J1-PDC was cultured in PANC media, which includes all 6C/Colon 1B media plus 100 ng/mL human FGF-10 (PeproTech, cat. 100-26), 500 nM SB-431542 (Selleckchem, cat. S1067), and 10 nM gastrin (Tocris Bioscience, cat. 3006). […]

[1] = second compound 0.0316 µM, first compound 0.0316 µM
[2] = second compound 0.0316 µM, first compound 0.1 µM
[3] = second compound 0.1 µM, first compound 0.0316 µM
[4] = second compound 0.1 µM, first compound 0.1 µM
[5] = second compound 0.316 µM, first compound 0.0316 µM
[6] = second compound 0.316 µM, first compound 0.1 µM
[7] = second compound 1 µM, first compound 0.0316 µM
[8] = second compound 1 µM, first compound 0.1 µM
[9] = second compound 3.16 µM, first compound 0.0316 µM
[10] = second compound 3.16 µM, first compound 0.1 µM
[11] = second compound 10 µM, first compound 0.0316 µM
[12] = second compound 10 µM, first compound 0.1 µM

CC(C)n1nc(-c2ccc3oc(N)nc3c2)c2c(N)ncnc21 + C#Cc1c(F)ccc2cc(O)cc(-c3ncc4c(N5CC6CCC(C5)N6)nc(OCC56CCCN5CC(F)C6)nc4c3F)c12
< 0.000316 µM: IC50 (second compound 1 µM) | IC50 (second compound 3.16 µM) | IC50 (second compound 10 µM)
> 0.1 µM: IC50 (second compound 0.0316 µM) | IC50 (second compound 0.1 µM) | IC50 (second compound 0.316 µM)
inactive: viability, T/C (second compound 0.0316 µM, first compound 0.000316 µM) 90.6% | viability, T/C (second compound 0.0316 µM, first compound 0.001 µM) 104% | viability, T/C (second compound 0.0316 µM, first compound 0.00316 µM) 73.3% | viability, T/C (second compound 0.0316 µM, first compound 0.01 µM) 54.9% | viability, T/C [1] 77.6% | viability, T/C [2] 68.4% | viability, T/C (second compound 0.1 µM, first compound 0.000316 µM) 62.5% | viability, T/C (second compound 0.1 µM, first compound 0.001 µM) 75.1% | viability, T/C (second compound 0.1 µM, first compound 0.00316 µM) 65.4% | viability, T/C (second compound 0.1 µM, first compound 0.01 µM) 54.6% | viability, T/C [3] 80% | viability, T/C [4] 56.8% | viability, T/C (second compound 0.316 µM, first compound 0.000316 µM) 66.4% | viability, T/C (second compound 0.316 µM, first compound 0.001 µM) 62.1% | viability, T/C (second compound 0.316 µM, first compound 0.00316 µM) 60% | viability, T/C (second compound 0.316 µM, first compound 0.01 µM) 49.7% | viability, T/C [5] 58.6% | viability, T/C [6] 61.7% | viability, T/C (second compound 1 µM, first compound 0.000316 µM) 42.5% | viability, T/C (second compound 1 µM, first compound 0.001 µM) 37.9% | viability, T/C (second compound 1 µM, first compound 0.00316 µM) 28.2% | viability, T/C (second compound 1 µM, first compound 0.01 µM) 26.7% | viability, T/C [7] 44% | viability, T/C [8] 48.5% | viability, T/C (second compound 3.16 µM, first compound 0.000316 µM) 31.5% | viability, T/C (second compound 3.16 µM, first compound 0.001 µM) 26% | viability, T/C (second compound 3.16 µM, first compound 0.00316 µM) 25.8% | viability, T/C (second compound 3.16 µM, first compound 0.01 µM) 19.8% | viability, T/C [9] 20.9% | viability, T/C [10] 19.3% | viability, T/C (second compound 10 µM, first compound 0.000316 µM) 18.8% | viability, T/C (second compound 10 µM, first compound 0.001 µM) 21.7% | viability, T/C (second compound 10 µM, first compound 0.00316 µM) 17.4% | viability, T/C (second compound 10 µM, first compound 0.01 µM) 15.2% | viability, T/C [11] 18.1% | viability, T/C [12] 15.1%

CCC(CC)c1cc(NC2CCC(N)C2)n2nccc2n1 (centres undefined) + C#Cc1c(F)ccc2cc(O)cc(-c3ncc4c(N5CC6CCC(C5)N6)nc(OCC56CCCN5CC(F)C6)nc4c3F)c12
< 0.0316 µM: IC50 (second compound 3.16 µM) | IC50 (second compound 10 µM)
1.69 µM: IC50 (second compound 0.1 µM)
1.86 µM: IC50 (second compound 0.0316 µM)
1.34 µM: IC50 (second compound 0.316 µM)
0.466 µM: IC50 (second compound 1 µM)
inactive: viability, T/C [1] 97.8% | viability, T/C [2] 104% | viability, T/C (second compound 0.0316 µM, first compound 0.316 µM) 118% | viability, T/C (second compound 0.0316 µM, first compound 1 µM) 75.7% | viability, T/C (second compound 0.0316 µM, first compound 3.16 µM) 19.7% | viability, T/C (second compound 0.0316 µM, first compound 10 µM) 36.2% | viability, T/C [3] 99% | viability, T/C [4] 125% | viability, T/C (second compound 0.1 µM, first compound 0.316 µM) 98.2% | viability, T/C (second compound 0.1 µM, first compound 1 µM) 71.9% | viability, T/C (second compound 0.1 µM, first compound 3.16 µM) 12.5% | viability, T/C (second compound 0.1 µM, first compound 10 µM) 35.3% | viability, T/C [5] 75% | viability, T/C [6] 85.1% | viability, T/C (second compound 0.316 µM, first compound 0.316 µM) 83.4% | viability, T/C (second compound 0.316 µM, first compound 1 µM) 58.5% | viability, T/C (second compound 0.316 µM, first compound 3.16 µM) 12.3% | viability, T/C (second compound 0.316 µM, first compound 10 µM) 38.6% | viability, T/C [7] 50.2% | viability, T/C [8] 57.9% | viability, T/C (second compound 1 µM, first compound 0.316 µM) 47.8% | viability, T/C (second compound 1 µM, first compound 1 µM) 46.1% | viability, T/C (second compound 1 µM, first compound 3.16 µM) 12.7% | viability, T/C (second compound 1 µM, first compound 10 µM) 35.3% | viability, T/C [9] 35.6% | viability, T/C [10] 28.6% | viability, T/C (second compound 3.16 µM, first compound 0.316 µM) 33.3% | viability, T/C (second compound 3.16 µM, first compound 1 µM) 33.9% | viability, T/C (second compound 3.16 µM, first compound 3.16 µM) 10.5% | viability, T/C (second compound 3.16 µM, first compound 10 µM) 39.9% | viability, T/C [11] 21.7% | viability, T/C [12] 24.9% | viability, T/C (second compound 10 µM, first compound 0.316 µM) 30.2% | viability, T/C (second compound 10 µM, first compound 1 µM) 27.6% | viability, T/C (second compound 10 µM, first compound 3.16 µM) 9.17% | viability, T/C (second compound 10 µM, first compound 10 µM) 35%
